In patent publication US20060178342A1, “Hyaluronan as a cytotoxic agent, drug pre-sensitizer and chemo-sensitizer in the treatment of disease” (priority 2001, published 2006):

Legend:
HT-29 = experiment: Effect of HA on cell proliferation; format: cell-based, human; settings: 3 days constant exposure, 100 nM
Protocol: (§1) The effect of HA on the proliferation of human breast and colon cancer cell lines was determined according to the methods set forth in the Table 11.

SW1222 = experiment: Effect of HA on cell proliferation; format: cell-based, human; settings: 3 days constant exposure, 100 nM
Protocol: as §1

ZR-75-1 = experiment: Effect of HA on cell proliferation; format: cell-based, human; settings: 3 days constant exposure
Protocol: as §1

LIM 2099 = experiment: Effect of HA on cell proliferation; format: cell-based, human; settings: 3 days constant exposure, 100 nM
Protocol: as §1

SW620 = experiment: Effect of HA on cell proliferation; format: cell-based, human; settings: 3 days constant exposure, 100 nM
Protocol: as §1

SK-CO-1 = experiment: Effect of HA on cell proliferation; format: cell-based, human; settings: 3 days constant exposure, 100 nM
Protocol: as §1

MDA MB 468 = experiment: Effect of HA on cell proliferation; format: cell-based, human
Protocol: as §1

MDA MB 435 = experiment: Effect of HA on cell proliferation; format: cell-based, human
Protocol: as §1

LIM 1215 = experiment: Effect of HA on cell proliferation; format: cell-based, human; settings: 3 days constant exposure, 100 nM
Protocol: as §1

MDA MB 231 = experiment: Effect of HA on cell proliferation; format: cell-based, human
Protocol: as §1

HCT-116 = experiment: Effect of HA on cell proliferation; format: cell-based, human; settings: 3 days constant exposure, 100 nM
Protocol: as §1

MDA-MB-231 = experiment: Breast cancer cell count assay (Coulter counter), HA ± adriamycin; format: cell-based, human
Protocol: (§2) Cell lines MDA-MB-468, MDA-MB-435 and MDA-MB-231 were routinely grown and subcultured as a monolayer in 175 cm^2 culture flasks in Leibovitz L-15 Medium supplemented with 10% Foetal calf serum (FCS) and antibiotic/antimycotic reagents at 37° C. in humidity controlled incubator with 100% (v/v) air.
(§3) For the tests, MDA MB-468, MDA MB-231 and MDA MB-435 cell line were grown in 90% Leibovitz L-15 medium supplemented with 10% FCS. When confluent the cultures were washed 1× in HBSS and trypsinised in 0.25% trypsin/0.05% EDTA. The cell suspensions were counted with an automated cell counter (ZM-2 Coulter Counter) by adding 15 mL saline+0.2 ml of cell suspension. • Cells were resuspended to a number of:
(§4) The cells were plated into 48-well plates (1 cm^2 surface area) by adding 1 ml of cell suspension per well. • Cells were allowed to attach for 24 h, before the media was removed, monolayers washed. The test media was; growth media containing 0-1 μM adriamycin or 5-fluorouracil with or without the addition of 0-1 μM of HA (modal Mw 750,000).
(§5) The cells were exposed to the several combinations of HA and drugs for different times and at different concentrations (Table 3).
(§6) After the incubation and growth periods the cell monolayers were washed with HBSS and trypsinised in 0.25% trypsin/0.05% EDTA. The cell suspensions were counted with an automated cell counter (ZM-2 Coulter Counter) by adding 15 mL saline+0.2 ml of cell suspension. Results were expressed as % of no drug control which was calculated as: […]

MDA-MB-468 = experiment: as above; format: cell-based, human
Protocol: as §2, §3, §4, §5, §6

[1] = system: human breast cancer cells; experiment: Breast cancer cell count assay, cell line not specified or pooled; format: cell-based; settings: HA incubated 30 min, 1 h, 24 h or 3 days
Protocol: The cell suspensions were counted with an automated cell counter (ZM-2 Coulter Counter) by adding 15 mL saline+0.2 ml of cell suspension. • Cells were resuspended to a number of: […] The cell suspensions were counted with an automated cell counter (ZM-2 Coulter Counter) by adding 15 mL saline+0.2 ml of cell suspension. Results were expressed as % of no drug control which was calculated as: […]

[2] = system: Human LIM1215 colon cancer xenografts; experiment: 14-week efficacy study, irinotecan ± HA in colon cancer xenografts; format: in vivo, mouse; settings: 13.3, 26.6 or 150 mg/kg HA, IV bolus Day 1 of 14 × q7 D
Text: Human LIM1215 colon cancer xenografts were inoculated into the mammary fat pad of athymic […] nude mice. Mice were randomly distributed into eight treatment groups (8 mice per group).
The treatment regime comprised of injections on Day 1 of a 7-day cycle for duration of fourteen weeks. Primary tumor volume, animal body mass, energy levels and food consumption were monitored three times weekly.
Athymic CBA/WEHI nude female mice (Walter and Eliza Hall Research Institute, Melbourne, Australia), 6 to 8 weeks old, were maintained under specific pathogen-free conditions, with sterilized food and water available ad libitum. Each mouse received one injection containing 1×10^7 cells in 50-100 μl. […]
Any animals with a tumor volume expressed as a percentage of body weight outside 0.25±0.10 (mean±1 SD) were excluded from data analysis. […]
The experimental end-point for each animal occurred either when the animal had to be euthanized due to a high degree of disease progression or when the 14-week study had been completed. The animals were monitored three times weekly and the following criteria were established to determine whether an animal had reached the experimental end point: tumour mass is greater than 10% of the animals total body mass; the animal is metabolically stressed (i.e. losing weight); or the animal is immobilized.

[3] = 24 H HA followed by growth for 3 days, 100 nM
[4] = 30 min HA followed by growth for 3 days, 100 nM
[5] = 3 days constant exposure, 100 nM
[6] = 3 days constant exposure, 500 nM
[7] = 3 days constant exposure, 10 μM

## hyaluronan [HA]
HT-29
  Effect of HA on cell proliferation (mean ± standard deviation): 82 ± 14 (n = 8) % of untreated control
SW1222
  Effect of HA on cell proliferation (mean ± standard deviation): 99 ± 1 (n = 8) % of untreated control
ZR-75-1; 100 nM
  Effect of HA on cell proliferation (mean ± standard deviation): 103 ± 4 (n = 20) % of untreated control
ZR-75-1; 500 nM
  Effect of HA on cell proliferation (mean ± standard deviation): 102 ± 1 (n = 8) % of untreated control
ZR-75-1; 10 μM
  Effect of HA on cell proliferation (mean ± standard deviation): 100 ± 3 (n = 8) % of untreated control
LIM 2099
  Effect of HA on cell proliferation (mean ± standard deviation): 105 ± 2 (n = 16) % of untreated control
SW620
  Effect of HA on cell proliferation (mean ± standard deviation): 97 ± 1 (n = 8) % of untreated control
SK-CO-1
  Effect of HA on cell proliferation (mean ± standard deviation): 95 ± 3 (n = 8) % of untreated control
MDA MB 468; [3]
  Effect of HA on cell proliferation (mean ± standard deviation): 84 ± 1 (n = 4) % of untreated control
MDA MB 468; [4]
  Effect of HA on cell proliferation (mean ± standard deviation): 97 ± 15 (n = 12) % of untreated control
MDA MB 468; [5]
  Effect of HA on cell proliferation (mean ± standard deviation): 99 ± 6 (n = 20) % of untreated control
MDA MB 468; [6]
  Effect of HA on cell proliferation (mean ± standard deviation): 95 ± 3 (n = 8) % of untreated control
MDA MB 468; [7]
  Effect of HA on cell proliferation (mean ± standard deviation): 99 ± 6 (n = 20) % of untreated control
MDA MB 435; [3]
  Effect of HA on cell proliferation (mean ± standard deviation): 111 ± 6 (n = 8) % of untreated control
MDA MB 435; [4]
  Effect of HA on cell proliferation (mean ± standard deviation): 86 ± 6 (n = 12) % of untreated control
MDA MB 435; [5]
  Effect of HA on cell proliferation (mean ± standard deviation): 85 ± 17 (n = 16) % of untreated control
MDA MB 435; [6]
  Effect of HA on cell proliferation (mean ± standard deviation): 55 ± 6 (n = 8) % of untreated control
MDA MB 435; [7]
  Effect of HA on cell proliferation (mean ± standard deviation): 101 ± 1(n = 8) % of untreated control
LIM 1215
  Effect of HA on cell proliferation (mean ± standard deviation): 89 ± 5 (n = 8) % of untreated control
MDA MB 231; [4]
  Effect of HA on cell proliferation (mean ± standard deviation): 86 ± 3 (n = 8) % of untreated control
MDA MB 231; [5]
  Effect of HA on cell proliferation (mean ± standard deviation): 106 ± 11 (n = 20) % of untreated control
MDA MB 231; [6]
  Effect of HA on cell proliferation (mean ± standard deviation): 100 ± 1 (n = 8) % of untreated control
MDA MB 231; [7]
  Effect of HA on cell proliferation (mean ± standard deviation): 101 ± 5 (n = 8) % of untreated control
HCT-116
  Effect of HA on cell proliferation (mean ± standard deviation): 92 ± 0 (n = 8) % of untreated control
MDA-MB-231; HA exposure 30 min 100 nM
  Cytotoxic effect of HA, change in cell number: −27%
MDA-MB-231; HA exposure 30 min 1000 nM
  Cytotoxic effect of HA, change in cell number: −26%
MDA-MB-231; HA exposure 1 h 100 nM
  Cytotoxic effect of HA, change in cell number: −21%
MDA-MB-231; HA exposure 24 h 100 nM
  Cytotoxic effect of HA, change in cell number: −8%
MDA-MB-231; HA exposure 3 days 100 nM
  Cytotoxic effect of HA, change in cell number: −23%
MDA-MB-468; HA exposure 30 min 100 nM
  Cytotoxic effect of HA, change in cell number: −5%
MDA-MB-468; HA exposure 30 min 500 nM
  Cytotoxic effect of HA, change in cell number: −22%
MDA-MB-468; HA exposure 30 min 1000 nM
  Cytotoxic effect of HA, change in cell number: +2%
MDA-MB-468; HA exposure 1 h 100 nM
  Cytotoxic effect of HA, change in cell number: +3%
MDA-MB-468; HA exposure 24 h 100 nM
  Cytotoxic effect of HA, change in cell number: −5%
MDA-MB-468; HA exposure 3 days 100 nM
  Cytotoxic effect of HA, change in cell number: −29%
[1]
  reduction in breast cancer cell number: 0-29%
[2]
  disease course with HA alone: progressive disease
